# Assay results published in patent US20130244879A1, “USE OF LIPO-CHITOOLIGOSACCHARIDES TO INITIATE EARLY FLOWERING AND FRUIT DEVELOPMENT IN PLANTS AND RELATED METHODS AND COMPOSITIONS” (NOVOZYMES BIOLOGICALS HOLDING A/S, priority 2003, published 2013).
# Key:
# Assay type in all cases: in vivo
# Cobra tomatoes = test: Trial 2: LCO dose and timing on greenhouse tomato (Cobra)
# Experimental: The Cobra variety was used to re-examine optimal doses of LCO. The concentrations tested were 50 ng and 75 ng LCO per plant, applied once (2 weeks after transplanting) and twice (4 weeks after transplanting). The sample number was increased to 20 plants.
# Ridgetown canning tomato = test: Experiment 10: effect of LCO on Ridgetown canning tomato; conditions: for Fruit number (on 24 plants) / Fruit number Increase vs. CK (%) / Fruit weight (kg/24 plants) / Fruit weight Increase vs. CK (%): first harvesting
# Experimental: The experiment was conducted at Ridgetown College, University of Guelph, Ridgetown, Ontario. Tomatoes were transplanted in single twin rows, 7 m in length spaced 1.65 m apart. Treatments of LCO were applied three times, two weeks before flowering (28 days after transplant), two weeks after flowering (52 days after transplant) and six weeks after flowering (69 days after transplant). Spray applications were applied using a specialized, small plot research CO2 sprayer with a two-nozzled, hand-held boom applying 200 L/ha of spray. Rates were determined based on 38 tomato plants per plot, replicated 4 times, equaling 152 plants per treatment. Early fruit was harvested for yield evaluation on Aug. 20, 2003.
# [1] = tested on: Red tomato (cv. Mountain Spring); test: Experiment 15: LCO application on early fruit number and yield, field tomato
# Experimental: Red tomato seedlings (cv. Mountain Spring) were transplanted at their 4-leaf stage. 7 plants in one row were transplanted in each plot of 3.5×2.5M2. The row was covered with 65 cm width black plastic mulch, one week before transplanting. Fertilizer (10-52-10) solution of 250 pprn was applied into the planting hole through the mulch when transplanting (approx. 250 ml/plant). the drip irrigation system was set to twice a week and 4 hours each time, depending on the soil moisture. Plants were sprayed with LCO 15 days after transplant (5 ml/plant) and 29 days after transplant (20 ml/plant). Fruits were first harvested 67 days after transplant.
# soybean (cv. Nortman) = test: Experiment 18: LCO foliar application on legume (soybean)
# Experimental: A short heat-unit variety of soybean (cv. Nortman, HU 2425) was planted at density of plants on the field of approx. 300 plants per plot (500,000 plants/ha). The soybean plants were first treated with LCO at their blooming stage 24 days after planting. The treatment amounts of LCO (detailed above) were diluted with distilled water to give a 2-litre solution sprayed over 4 plots of the treatment. The second application was sprayed at the podding stage 49 days after planting. As before, the LCO was diluted with distilled water to 2-litre solution per 4 plots of the treatment. The plants receiving a single application were sprayed with LCO for the first time, whereas the plants receiving a double application were sprayed for the second time. A CO2 pressure sprayer was employed for this trial. The amount of fluid dispensed by the sprayer was controlled by the nozzle size. It was calibrated with water prior to spraying with LCO. Biomass was examined 58 days after planting by digging out by hand 5 plants per plot. The final yield was obtained by harvesting by combine the intact area (2-meter long to the end) 101 days after planting. The data were analyzed with the SAS program.
# [2] = tested on: greenhouse-grown tomato plants; test: Experiments 1 and 2: effect of LCO on tomato flowering; conditions: for difference in flowering between LCO treated plants and control: Experiment 2
# Experimental: Two experiments were performed to investigate effect of LCO on plant's flowering using greenhouse-grown tomato plants.
# Tomato = test: Experiment 16: LCO application on fruit number and weight at end of season; conditions: LCO applied once at 50 ng, 20-40 days after transplantation
# Source text: Tomato seedlings (6 leaf-stage) were transplanted. The plants were watered on the day they were transplanted and whenever the soil was very dry during the season. Fertilizer (20-20-20) was applied at 250 kg/ha to the tomato field before transplantation. All tomato plants were supported with sticks when they were heavily loaded with fruit. Fruit yield was finally cumulated at the end of the season 115 days after transplant.
# [3] = applied 2 weeks before and after flowering
substance,measurement,setting,value
Lipo-chitooligosaccharides [LCO],advance in flowering (attaining same flower number as control),Cobra tomatoes; 50 ng treatment,~3 days
same,advance of equivalent fruit numbers over control,Cobra tomatoes; 50 ng/plant application twice,2 weeks
same,Flower Number/Plant,"Cobra tomatoes; LCO 50 ng once, April 4",32.45
same,Fruit Number/Plant,"Cobra tomatoes; LCO 50 ng once, April 4",1.3 b
same,Flower Number/Plant,"Cobra tomatoes; LCO 50 ng once, Feb. 28",0.0 b
same,Flower Number/Plant,"Cobra tomatoes; LCO 50 ng once, Mar. 7",2.5 ab
same,Flower Number/Plant,"Cobra tomatoes; LCO 50 ng once, Mar. 14",7.4 ab
same,Fruit Number/Plant,"Cobra tomatoes; LCO 50 ng once, Mar. 14",0.05 b
same,Flower Number/Plant,"Cobra tomatoes; LCO 50 ng once, Mar. 21",14.55
same,Fruit Number/Plant,"Cobra tomatoes; LCO 50 ng once, Mar. 21",0.25
same,Flower Number/Plant,"Cobra tomatoes; LCO 50 ng once, Mar. 28",23.95
same,Fruit Number/Plant,"Cobra tomatoes; LCO 50 ng once, Mar. 28",0.525 c
same,Flower Number/Plant,"Cobra tomatoes; LCO 50 ng twice, April 4",32.2
same,Fruit Number/Plant,"Cobra tomatoes; LCO 50 ng twice, April 4",2.5 a
same,Flower Number/Plant,"Cobra tomatoes; LCO 50 ng twice, Feb. 28",0.2 a
same,Flower Number/Plant,"Cobra tomatoes; LCO 50 ng twice, Mar. 7",3.2 a
same,Flower Number/Plant,"Cobra tomatoes; LCO 50 ng twice, Mar. 14",8.4 a
same,Fruit Number/Plant,"Cobra tomatoes; LCO 50 ng twice, Mar. 14",0.75 a
same,Flower Number/Plant,"Cobra tomatoes; LCO 50 ng twice, Mar. 21",16.0
same,Fruit Number/Plant,"Cobra tomatoes; LCO 50 ng twice, Mar. 21",1.8 a
same,Flower Number/Plant,"Cobra tomatoes; LCO 50 ng twice, Mar. 28",25.15
same,Fruit Number/Plant,"Cobra tomatoes; LCO 50 ng twice, Mar. 28",2.025 a
same,Flower Number/Plant,"Cobra tomatoes; LCO 75 ng once, April 4",28.0
same,Fruit Number/Plant,"Cobra tomatoes; LCO 75 ng once, April 4",1.45 b
same,Flower Number/Plant,"Cobra tomatoes; LCO 75 ng once, Feb. 28",0.0 b
same,Flower Number/Plant,"Cobra tomatoes; LCO 75 ng once, Mar. 7",2.85 ab
same,Flower Number/Plant,"Cobra tomatoes; LCO 75 ng once, Mar. 14",7.35 ab
same,Fruit Number/Plant,"Cobra tomatoes; LCO 75 ng once, Mar. 14",0.45 ab
same,Flower Number/Plant,"Cobra tomatoes; LCO 75 ng once, Mar. 21",14.2
same,Fruit Number/Plant,"Cobra tomatoes; LCO 75 ng once, Mar. 21",0.9 bc
same,Flower Number/Plant,"Cobra tomatoes; LCO 75 ng once, Mar. 28",21.4
same,Fruit Number/Plant,"Cobra tomatoes; LCO 75 ng once, Mar. 28",1.15 bc
same,Flower Number/Plant,"Cobra tomatoes; LCO 75 ng twice, April 4",31.0
same,Fruit Number/Plant,"Cobra tomatoes; LCO 75 ng twice, April 4",1.9 ab
same,Flower Number/Plant,"Cobra tomatoes; LCO 75 ng twice, Feb. 28",0.0 b
same,Flower Number/Plant,"Cobra tomatoes; LCO 75 ng twice, Mar. 7",3.25 a
same,Flower Number/Plant,"Cobra tomatoes; LCO 75 ng twice, Mar. 14",7.35 ab
same,Fruit Number/Plant,"Cobra tomatoes; LCO 75 ng twice, Mar. 14",0.6 ab
same,Flower Number/Plant,"Cobra tomatoes; LCO 75 ng twice, Mar. 21",15.4
same,Fruit Number/Plant,"Cobra tomatoes; LCO 75 ng twice, Mar. 21",1.0 b
same,Flower Number/Plant,"Cobra tomatoes; LCO 75 ng twice, Mar. 28",23.35
same,Fruit Number/Plant,"Cobra tomatoes; LCO 75 ng twice, Mar. 28",1.325 ab
same,increased fruit number,Ridgetown canning tomato; [3],up to 20%
same,increased fruit weight,Ridgetown canning tomato; [3],up to 16%
same,Fruit number (on 24 plants),Ridgetown canning tomato; treatment 0-50-0,209AB
same,Fruit number Increase vs. CK (%),Ridgetown canning tomato; treatment 0-50-0,14.2%
same,Fruit weight (kg/24 plants),Ridgetown canning tomato; treatment 0-50-0,12.598 kg/24 plants
same,Fruit weight Increase vs. CK (%),Ridgetown canning tomato; treatment 0-50-0,16.2%
same,Fruit number (on 24 plants),Ridgetown canning tomato; treatment 0-50-75,191AB
same,Fruit number Increase vs. CK (%),Ridgetown canning tomato; treatment 0-50-75,4.4%
same,Fruit weight (kg/24 plants),Ridgetown canning tomato; treatment 0-50-75,11.352 kg/24 plants
same,Fruit weight Increase vs. CK (%),Ridgetown canning tomato; treatment 0-50-75,4.7%
same,Fruit number (on 24 plants),Ridgetown canning tomato; treatment 50-0-0,206AB
same,Fruit number Increase vs. CK (%),Ridgetown canning tomato; treatment 50-0-0,12.6%
same,Fruit weight (kg/24 plants),Ridgetown canning tomato; treatment 50-0-0,11.916 kg/24 plants
same,Fruit weight Increase vs. CK (%),Ridgetown canning tomato; treatment 50-0-0,9.9%
same,Fruit number (on 24 plants),Ridgetown canning tomato; treatment 50-50-0,219A
same,Fruit number Increase vs. CK (%),Ridgetown canning tomato; treatment 50-50-0,19.7%
same,Fruit weight (kg/24 plants),Ridgetown canning tomato; treatment 50-50-0,12.567 kg/24 plants
same,Fruit weight Increase vs. CK (%),Ridgetown canning tomato; treatment 50-50-0,15.9%
same,Fruit number (on 24 plants),Ridgetown canning tomato; treatment 50-75-0,199AB
same,Fruit number Increase vs. CK (%),Ridgetown canning tomato; treatment 50-75-0,8.7%
same,Fruit weight (kg/24 plants),Ridgetown canning tomato; treatment 50-75-0,11.421 kg/24 plants
same,Fruit weight Increase vs. CK (%),Ridgetown canning tomato; treatment 50-75-0,5.3%
same,optimal application,[1]; early fruit number and weight,75 ng/plant
same,early fruit number and weight,[1]; foliar spray 15 and 29 days after transplant,significantly increased
same,Biomass (g/5-plant),"soybean (cv. Nortman); LCO 1 ng, applied once",49.46 AB g/5-plant
same,Yield (kg/ha),"soybean (cv. Nortman); LCO 1 ng, applied once",2563.96 AB kg/ha
same,Biomass (g/5-plant),"soybean (cv. Nortman); LCO 1 ng, applied twice",55.10 AB g/5-plant
same,Yield (kg/ha),"soybean (cv. Nortman); LCO 1 ng, applied twice",2673.54 AB kg/ha
same,Biomass (g/5-plant),"soybean (cv. Nortman); LCO 10 ng, applied once",46.28 AB g/5-plant
same,Yield (kg/ha),"soybean (cv. Nortman); LCO 10 ng, applied once",2515.33 B kg/ha
same,Biomass (g/5-plant),"soybean (cv. Nortman); LCO 10 ng, applied twice",60.11 A g/5-plant
same,Yield (kg/ha),"soybean (cv. Nortman); LCO 10 ng, applied twice",2385.75 B kg/ha
same,Biomass (g/5-plant),"soybean (cv. Nortman); LCO 100 ng, applied once",46.87 AB g/5-plant
same,Yield (kg/ha),"soybean (cv. Nortman); LCO 100 ng, applied once",2635.00 AB kg/ha
same,Biomass (g/5-plant),"soybean (cv. Nortman); LCO 100 ng, applied twice",55.09 AB g/5-plant
same,Yield (kg/ha),"soybean (cv. Nortman); LCO 100 ng, applied twice",2974.17 A kg/ha
same,Biomass (g/5-plant),"soybean (cv. Nortman); LCO 1000 ng, applied once",47.99 AB g/5-plant
same,Yield (kg/ha),"soybean (cv. Nortman); LCO 1000 ng, applied once",2452.71 B kg/ha
same,Biomass (g/5-plant),"soybean (cv. Nortman); LCO 1000 ng, applied twice",47.81 AB g/5-plant
same,Yield (kg/ha),"soybean (cv. Nortman); LCO 1000 ng, applied twice",2620.42 AB kg/ha
same,LCO treated plants flowered 3 days earlier than control,[2]; Experiment 1,over 80%
same,shift in time of flowering,[2]; Experiment 1,3 days
same,more plants flowering as compared to control,"[2]; Experiment 1, day 4 of assessment",35%
same,more plants flowering as compared to control,"[2]; Experiment 1, day I of assessment",25%
same,difference in flowering between LCO treated plants and control,[2]; day 3 of assessment,20%
same,difference in flowering between LCO treated plants and control,[2]; initially,10%
same,increased fruit number,Tomato,up to 33%
